Data as given in ChEMBL document CHEMBL3352707, “Antimycobacterial activity of natural products and synthetic agents: pyrrolodiquinolines and vermelhotin as anti-tubercular leads against clinical multidrug resistant isolates of Mycobacterium tuberculosis” (Eur J Med Chem, 2015).
Values after ≈ are worked out from the molar mass of the structure shown.

How the values were obtained:
[1] = system: Mycobacterium tuberculosis; test: Antimycobacterial activity against Mycobacterium tuberculosis H37Ra after 7 days by microplate Alamar blue assay; assay type: functional; conditions: 168 h
[2] = system: Mycobacterium tuberculosis; test: Antimycobacterial activity against Mycobacterium tuberculosis H37Rv after 7 days by microplate Alamar blue assay; assay type: functional; conditions: 168 h
[3] = system: Mycobacterium tuberculosis; test: Antimycobacterial activity against p-Aminosalicylic acid-resistant Mycobacterium tuberculosis H37Rv ATCC 35821 after 7 days by microplate Alamar blue assay; assay type: functional; conditions: H37Rv ATCC 35821, 168 h
[4] = system: MRC5; test: Cytotoxicity against human MRC5 cells by MTT assay; assay type: cell-based
[5] = system: MRC5; test: Cytotoxicity against human MRC5 cells at 50 ug/ml by MTT assay; assay type: cell-based

Structure (SMILES) | MIC [1] [µg/mL] | also measured
CC1=CC2=C(Cc3c(O)cc(C)oc3=O)C(=O)[C@](C)(O)[C@@H](O)C2=CO1 | > 100 | 
CN1c2ccccc2C2CC1OC1=C2C(=O)CC(C)(C)C1 (stereo not drawn) | > 100 | 
CN1C(=O)C(C2C3=C(CCCC3=O)Oc3ccc(Cl)cc32)C(=O)N(C)C1=O (stereo not drawn) | > 100 | 
CN1C(=O)C(C2C3=C(CC(C)(C)CC3=O)Oc3ccc([N+](=O)[O-])cc32)C(=O)N(C)C1=O (stereo not drawn) | > 100 | 
CCC(N)C(=O)O (racemic) | > 100 | 
CC1(C)CC(=O)C2=C(C1)Oc1ccc(Br)cc1C2n1nnc2ccccc21 (stereo not drawn) | > 100 | 
COc1ccc2c(c1)OC1=C(C(=O)CCC1)C2c1c[nH]c2ccccc12 (stereo not drawn) | > 100 | 
CC1(C)CC(=O)C2=C(C1)Oc1ccc(Cl)cc1C2c1c(C(=O)O)[nH]c2ccccc12 (stereo not drawn) | 100 (≈ 237 µM) | 
COc1ccc2oc(=O)c(C(C)=O)cc2c1 | > 100 | 
C/C(=C\C=C\[C@H](O)[C@@H](C)O)[C@H](O)[C@H](C)C(=O)O[C@H]1C[C@H](C)C[C@@H]2C=C[C@H](C)[C@](C)(C(=O)CCO)[C@@H]12 | > 100 | 
COc1ccc2c(c1)C(c1c[nH]c3ccccc13)C1=C(CCCC1=O)O2 (stereo not drawn) | 100 (≈ 290 µM) | 
O=C(c1ccccc1)c1cc2ccccc2oc1=O | 50 (≈ 200 µM) | 
C[C@@H]1[C@H](O)[C@@H](C)/C=C/C=C/C=C/C=C/C=C/C=C/C=C/[C@H](O[C@@H]2O[C@H](C)[C@@H](O)[C@H](N)[C@@H]2O)C[C@@H]2O[C@](O)(C[C@@H](O)C[C@@H](O)[C@H](O)CC[C@@H](O)C[C@@H](O)CC(=O)O[C@H]1C)C[C@H](O)[C@H]2C(=O)O [AMPHOTERICIN B] | > 100 | 
O=C1c2c(O)cc(O)c([C@@H]3C(=O)c4c(O)cc(O)cc4O[C@H]3c3ccc(O)cc3)c2O[C@H](c2ccc(O)cc2)[C@H]1O | > 100 | 
O=C1C[C@H]2SS[C@@]34C[C@@H]1[C@@H]([C@H]2O)N3C(=O)[C@@]12C[C@H]3C(=O)C[C@@H](S1)[C@H](O)[C@H]3N2C4=O [EPICOCCIN A] | > 100 | MIC [2]: > 100 µg/mL
Cc1cc(O)c2c(c1O)C(=O)c1cc(O)cc(O)c1C2=O [CATENARIN] | 100 (≈ 349 µM) | 
NCCS(=O)(=O)O [TAURINE] | > 100 | 
COc1ccc(Br)c2c1OC1=C(C(=O)CCC1)C2n1nnc2ccccc21 (stereo not drawn) | > 100 | 
C/C=C(\C)c1c(Cl)c(OC)c(C)c2c1Oc1c(Cl)c(O)c(Cl)c(C)c1C(=O)O2 | 100 (≈ 225 µM) | 
O=C1CCCC2=C1C(n1nnc3ccccc31)c1cc(Br)ccc1O2 (stereo not drawn) | > 100 | 
COc1ccc2cc(C(C)=O)c(=O)oc2c1 | > 100 | 
C/C=C(\C)c1c(Cl)c(OC)c(C)c(O)c1Oc1c(Cl)c(O)c(Cl)c(C)c1C(=O)OC | 100 (≈ 210 µM) | 

Structure (SMILES) | MIC [1] [µg/mL] | also measured
COc1cc(O)cc2cc3c(c(O)c12)C(=O)C[C@@](C)(O)C3 | 25 (≈ 86.7 µM) | 
COC(=O)[C@@H]1CC[C@@]23COC(=O)C2=CCC[C@@H]3[C@@]1(C)CC(=O)c1ccoc1 | > 100 | 
O=C1CCCC2=C1C(c1c[nH]c3ccccc13)c1cccc(O)c1O2 (stereo not drawn) | > 100 | 
CN1C(=O)C(C2C3=C(CC(C)(C)CC3=O)Oc3ccc(Cl)cc32)C(=O)N(C)C1=O (stereo not drawn) | > 100 | 
O=C(O)CC[N+](=O)[O-] | 50 (≈ 420 µM) | MIC [2]: 12.5 µg/mL (≈ 105 µM)
CC1(C)CC(=O)C2=C(C1)Oc1c(O)cccc1C2n1nnc2ccccc21 (stereo not drawn) | > 100 | 
O=C1CCCC2=C1C(c1c[nH]c3ccccc13)c1ccc(O)cc1O2 (stereo not drawn) | > 100 | 
O=C1CCCC2=C1C(c1c[nH]c3ccccc13)c1ccccc1O2 (stereo not drawn) | > 100 | 
O=C(c1ccccc1)c1cc2cc([N+](=O)[O-])ccc2oc1=O | 50 (≈ 169 µM) | 
C[n+]1cc2c(cn3c4ccccc4ccc23)c2ccccc21.[I-] | 1.5 | MIC [3]: 1.5 µg/mL; MIC [2]: 6.2 µg/mL; IC50 [4]: 30 µg/mL
COc1cccc2c1C(=O)c1c(O)c3c(c(O)c1C2=O)C[C@@](O)(C(=O)CO)C[C@@H]3O[C@H]1C[C@H](N)[C@H](O)[C@H](C)O1 [DOXORUBICIN] |  | Activity [5]: Non-toxic
COc1ccc2c(c1)C(C1=C(O)CCCC1=O)C1=C(CCCC1=O)O2 (stereo not drawn) | > 100 | 
O=C(c1ccccc1)c1cc2c(ccc3ccccc32)oc1=O | > 100 | 
O=C1CCCC2=C1C(n1nnc3ccccc31)c1cc(Cl)ccc1O2 (stereo not drawn) | > 100 | 
COC(=O)c1cc2ccccc2oc1=O | > 100 | 
COc1ccc(Br)c2c1OC1=C(C(=O)CC(C)(C)C1)C2n1nnc2ccccc21 (stereo not drawn) | > 100 | 
COc1ccc(Br)c2c1OC1=C(C(=O)CCC1)C2c1c[nH]c2ccccc12 (stereo not drawn) | > 100 | 
CN1C(=O)C(C2C3=C(CCCC3=O)Oc3ccc([N+](=O)[O-])cc32)C(=O)N(C)C1=O (stereo not drawn) | > 100 | 
O=C(c1ccccc1)c1cc2cc(Cl)ccc2oc1=O | > 100 | 
CCN(CC)c1ccc2c(c1)OC1=C(C(=O)CC(C)(C)C1)C2c1c[nH]c2ccccc12 (stereo not drawn) | > 100 | 
O=C1NC(=O)/C(=C2/CCNC(=O)c3[nH]c(Br)cc32)N1 | > 100 | 
